Laboratory results reported in US20060069132A1, “Azolecarboxamide herbicides” (priority 2004, published 2006).

Legend:
lambsquarters = assay: Test C pre-/postemergence herbicide test; format: in vivo, Chenopodium album; details: for Plant response rating, Lambsquarters / Plant response rating (0 = no effect, 100 = complete control), Lambsquarters: preemergence; for Plant response rating (0 = no effect, 100 = complete control), Lambsquarters: 62 g ai/ha
Method in brief: (§1)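 Emerged plants at the 1- to 4-leaf stage (2–18 cm), or freshly planted seeds, received test chemicals in a non-phytotoxic solvent mixture with surfactant. Response was visually scored against controls after 12 to 14 days in the greenhouse, on a 0 (no effect) to 100 (complete control) scale.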

corn = assay: Test C pre-/postemergence herbicide test; format: in vivo, Zea mays; details: for Plant response rating (0 = no effect, 100 = complete control), Corn: 62 g ai/ha; for Plant response rating (0 = no effect, 100 = complete control), Corn / Plant response rating, Corn: preemergence; for Plant response rating, Corn: visual, 12 to 14 days
Method in brief: as §1

johnsongrass = assay: Test C pre-/postemergence herbicide test; format: in vivo, Sorghum halepense; details: for Plant response rating, Johnsongrass / Plant response rating (0 = no effect, 100 = complete control), Johnsongrass: preemergence; for Plant response rating (0 = no effect, 100 = complete control), Johnsongrass: 62 g ai/ha
Method in brief: as §1

eastern black nightshade = assay: Test C pre-/postemergence herbicide test; format: in vivo, Solanum ptycanthum; details: for Plant response rating, Nightshade / Plant response rating (0 = no effect, 100 = complete control), Nightshade: preemergence; for Plant response rating (0 = no effect, 100 = complete control), Nightshade: 62 g ai/ha
Method in brief: as §1

kochia = assay: Test C pre-/postemergence herbicide test; format: in vivo, Kochia scoparia; details: for Plant response rating, Kochia / Plant response rating (0 = no effect, 100 = complete control), Kochia: preemergence; for Plant response rating (0 = no effect, 100 = complete control), Kochia: 62 g ai/ha
Method in brief: as §1

woolly cupgrass = assay: Test C pre-/postemergence herbicide test; format: in vivo, Eriochloa villosa; details: for Plant response rating, Cupgrass, Woolly / Plant response rating (0 = no effect, 100 = complete control), Cupgrass, Woolly: preemergence; for Plant response rating (0 = no effect, 100 = complete control), Cupgrass, Woolly: 62 g ai/ha
Method in brief: as §1

[1] = system: common (oilseed) sunflower; assay: Test C pre-/postemergence herbicide test; format: in vivo, Helianthus annuus; details: for Plant response rating, Sunflower / Plant response rating (0 = no effect, 100 = complete control), Sunflower: preemergence; for Plant response rating (0 = no effect, 100 = complete control), Sunflower: 62 g ai/ha
Method in brief: as §1

Surinam grass = assay: Test C pre-/postemergence herbicide test; format: in vivo, Urochloa decumbens; details: for Plant response rating, Surinam Grass / Plant response rating (0 = no effect, 100 = complete control), Surinam Grass: preemergence; for Plant response rating (0 = no effect, 100 = complete control), Surinam Grass: 62 g ai/ha
Method in brief: as §1

barnyardgrass = assay: Test A pre-/postemergence herbicide test; format: in vivo, Echinochloa crus-galli
Method in brief: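 Both application timings were run together: directed soil spray over freshly planted seeds in sandy loam, and runoff spray onto 2–10 cm seedlings. Evaluation after ~10 days in greenhouse used a 0–100 visual scale versus untreated controls.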

cocklebur = assay: Test C pre-/postemergence herbicide test; format: in vivo, Xanthium strumarium; details: for Plant response rating, Cocklebur / Plant response rating (0 = no effect, 100 = complete control), Cocklebur: preemergence; for Plant response rating (0 = no effect, 100 = complete control), Cocklebur: 62 g ai/ha
Method in brief: as §1

[2] = 125 g ai/ha, scale 0 (no effect) to 100 (complete control), visual, 12 to 14 days
[3] = 250 g ai/ha, scale 0 to 100 (0 no effect, 100 complete control), visual, 12 to 14 days
[4] = 125 g ai/ha, scale 0 (no effect) to 100 (complete control)
[5] = 250 g ai/ha, scale 0 to 100 (0 no effect, 100 complete control)
[6] = Postemergence, 500 g ai/ha, 0 to 100 scale, 0 no effect, 100 complete control
[7] = Postemergence, 2000 g ai/ha, 0 to 100 scale, 0 no effect, 100 complete control
[8] = Preemergence, 500 g ai/ha, visual rating, 0 to 100 scale (0 no effect, 100 complete control)
[9] = Preemergence, 500 g ai/ha, scale 0 to 100, 0 no effect, 100 complete control

With `CCCCn1nc(C(C)(C)C)cc1C(=O)Nc1cccc(C(=O)NCC)c1` [Compound 41] the “Plant response rating, Lambsquarters” value (lambsquarters; 31 g ai/ha, scale 0 to 100) was 0, the “Plant response rating (0 = no effect, 100 = complete control), Lambsquarters” value (lambsquarters) was 50 and the “Plant response rating, Lambsquarters” value (lambsquarters; [2]) was 90. The “Plant response rating, Lambsquarters” value (lambsquarters; [3]) was 100, the “Plant response rating (0 = no effect, 100 = complete control), Corn” value (corn) was 0 and the “Plant response rating, Corn” value (corn; [4]) was 0. For the same compound, the “Plant response rating, Corn” value (corn; [5]) was 0, the “Plant response rating, Johnsongrass” value (johnsongrass; 31 g ai/ha, scale 0 to 100) was 0 and the “Plant response rating (0 = no effect, 100 = complete control), Johnsongrass” value (johnsongrass) was 0. For the same compound, the “Plant response rating, Johnsongrass” value (johnsongrass; [3]) was 20, the “Plant response rating, Nightshade” value (eastern black nightshade; 31 g ai/ha, scale 0 to 100) was 0 and the “Plant response rating (0 = no effect, 100 = complete control), Nightshade” value (eastern black nightshade) was 0. The “Plant response rating, Nightshade” value (eastern black nightshade; [2]) was 10, the “Plant response rating, Nightshade” value (eastern black nightshade; [3]) was 90 and the “Plant response rating, Kochia” value (kochia; 31 g ai/ha, scale 0 to 100) was 0. For the same compound, the “Plant response rating (0 = no effect, 100 = complete control), Kochia” value (kochia) was 20, the “Plant response rating, Kochia” value (kochia; [2]) was 20 and the “Plant response rating, Kochia” value (kochia; [3]) was 30. For the same compound, the “Plant response rating, Cupgrass, Woolly” value (woolly cupgrass; 31 g ai/ha, scale 0 to 100) was 0, the “Plant response rating (0 = no effect, 100 = complete control), Cupgrass, Woolly” value (woolly cupgrass) was 0 and the “Plant response rating, Cupgrass, Woolly” value (woolly cupgrass; [2]) was 0. For the same compound, the “Plant response rating, Cupgrass, Woolly” value (woolly cupgrass; [3]) was 30, the “Plant response rating, Sunflower” value ([1]; 31 g ai/ha, scale 0 to 100) was 0 and the “Plant response rating (0 = no effect, 100 = complete control), Sunflower” value [1] was 0. For the same compound, the “Plant response rating, Sunflower” value [1, 2] was 0, the “Plant response rating, Sunflower” value [1, 3] was 0 and the “Plant response rating, Surinam Grass” value (Surinam grass; 31 g ai/ha, scale 0 to 100) was 10. For the same compound, the “Plant response rating (0 = no effect, 100 = complete control), Surinam Grass” value (Surinam grass) was 20, the “Plant response rating, Surinam Grass” value (Surinam grass; [2]) was 20 and the “Plant response rating, Surinam Grass” value (Surinam grass; [3]) was 20. For the same compound, the “Plant response rating, Barnyardgrass” value (barnyardgrass; [6]) was 30, the “Plant response rating, Barnyardgrass” value (barnyardgrass; [7]) was 60 and the “Barnyardgrass plant response rating” value (barnyardgrass; [8]) was 40. For the same compound, the “Barnyardgrass plant response rating” value (barnyardgrass; Preemergence, 2000 g ai/ha, 0 to 100 scale, 0 no effect, 100 complete control) was 75, the “Plant response rating, Cocklebur” value (cocklebur; 31 g ai/ha, scale 0 to 100) was 0 and the “Plant response rating (0 = no effect, 100 = complete control), Cocklebur” value (cocklebur) was 0. For the same compound, the “Plant response rating, Cocklebur” value (cocklebur; [2]) was 0 and the “Plant response rating, Cocklebur” value (cocklebur; [3]) was 10.

In the case of `CCN(CC)C(=O)c1cccc(NC(=O)c2cc(C(C)(C)C)nn2CC)n1` [Compound 145], the “Plant response rating (0 = no effect, 100 = complete control), Lambsquarters” value (lambsquarters) is reported as 20, the “Plant response rating, Lambsquarters” value (lambsquarters; [2]) is reported as 60 and the “Lambsquarters plant response rating” value (lambsquarters; [9]) is reported as 100. For the same compound, the “Plant response rating (0 = no effect, 100 = complete control), Corn” value (corn) was 0, the “Plant response rating, Corn” value (corn; [4]) was 0 and the “Plant response rating, Corn” value (corn; [5]) was 5. For the same compound, the “Corn plant response rating” value (corn; [9]) was 20, the “Plant response rating (0 = no effect, 100 = complete control), Johnsongrass” value (johnsongrass) was 50 and the “Plant response rating, Johnsongrass” value (johnsongrass; [2]) was 65. The “Johnsongrass plant response rating” value (johnsongrass; [9]) was 90, the “Plant response rating (0 = no effect, 100 = complete control), Nightshade” value (eastern black nightshade) was 60 and the “Plant response rating, Nightshade” value (eastern black nightshade; [2]) was 70. The “Nightshade plant response rating” value (eastern black nightshade; [9]) was 90, the “Plant response rating (0 = no effect, 100 = complete control), Kochia” value (kochia) was 20 and the “Plant response rating, Kochia” value (kochia; [2]) was 60. The “Kochia plant response rating” value (kochia; [9]) was 80, the “Plant response rating (0 = no effect, 100 = complete control), Cupgrass, Woolly” value (woolly cupgrass) was 0 and the “Plant response rating, Cupgrass, Woolly” value (woolly cupgrass; [2]) was 0. The “Plant response rating, Cupgrass, Woolly” value (woolly cupgrass; [3]) was 0, the “Cupgrass, Woolly plant response rating” value (woolly cupgrass; [9]) was 40 and the “Plant response rating (0 = no effect, 100 = complete control), Sunflower” value [1] was 0. The “Plant response rating, Sunflower” value [1, 2] was 0, the “Sunflower plant response rating” value [1, 9] was 30 and the “Plant response rating (0 = no effect, 100 = complete control), Surinam Grass” value (Surinam grass) was 0. For the same compound, the “Plant response rating, Surinam Grass” value (Surinam grass; [2]) was 50, the “Surinam Grass plant response rating” value (Surinam grass; [9]) was 70 and the “Barnyardgrass plant response rating” value (barnyardgrass; [6]) was 40. The “Plant response rating, Barnyardgrass” value (barnyardgrass; [7]) was 100, the “Barnyardgrass plant response rating” value (barnyardgrass; [8]) was 95 and the “Barnyardgrass plant response rating” value (barnyardgrass; Preemergence, 2000 g ai/ha, visual rating, 0 to 100 scale (0 no effect, 100 complete control)) was 100. The “Plant response rating (0 = no effect, 100 = complete control), Cocklebur” value (cocklebur) was 0, the “Plant response rating, Cocklebur” value (cocklebur; [2]) was 0 and the “Plant response rating, Cocklebur” value (cocklebur; [3]) was 0. The “Cocklebur plant response rating” value (cocklebur; [9]) was 0.
